Assay results as given in patent US4806532A, “Inhibition of epithelial phosphate transport” (Mayo Foundation for Medical Education and Research, priority 1985, dated 1989).
“Also recorded” adds a separate entry of the source. Blank lines part the entries; values can stand above or below the compound they belong to.

Tests used:
[1] = biological target: T1, Na-Pi cotransporter (Rattus norvegicus, UniProt Q06496); assay: Na+-gradient-dependent 32Pi uptake by renal cortical BBMV (rapid filtration); format: biochemical
T1 construct: from tissue; host or cells: rat renal cortex, brush border membrane vesicles
T1 sequence (Q06496 1-637): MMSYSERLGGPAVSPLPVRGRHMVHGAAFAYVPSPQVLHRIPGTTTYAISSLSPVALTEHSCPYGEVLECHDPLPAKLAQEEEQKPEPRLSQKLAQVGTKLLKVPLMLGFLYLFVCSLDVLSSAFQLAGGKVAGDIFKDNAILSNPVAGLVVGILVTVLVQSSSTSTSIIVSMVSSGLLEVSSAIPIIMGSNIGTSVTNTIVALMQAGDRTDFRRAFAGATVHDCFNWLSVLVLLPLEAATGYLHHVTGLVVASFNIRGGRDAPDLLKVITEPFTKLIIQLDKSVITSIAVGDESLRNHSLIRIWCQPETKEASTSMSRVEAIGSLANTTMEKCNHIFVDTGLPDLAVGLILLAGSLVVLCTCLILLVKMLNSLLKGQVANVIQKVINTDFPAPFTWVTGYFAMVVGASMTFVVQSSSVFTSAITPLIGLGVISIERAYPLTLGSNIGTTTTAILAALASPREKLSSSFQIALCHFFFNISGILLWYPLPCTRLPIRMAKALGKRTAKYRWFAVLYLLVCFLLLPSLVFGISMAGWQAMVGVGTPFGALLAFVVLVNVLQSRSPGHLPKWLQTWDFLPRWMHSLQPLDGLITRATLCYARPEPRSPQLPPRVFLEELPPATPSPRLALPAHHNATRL
Description: (§1) The brush border membrane vesicles (BBMV) were prepared from renal cortical tissue of adult male Sprague-Dawley rats of an average body weight of about 220 grams. Rats were fed ad libitum standard rat chow containing 0.7% Pi and had free access to distilled water. Rats were sacrificed under anesthesia and dissected renal cortical tissue was used for preparation of BBMV fraction by the divalent cation-precipitation procedure, employed and described in detail in J. Clin. Invest., 67, 1347 (1981) and J. Biol. Chem., 258, 5695 (1983), with the following modifications: (a) MgCl2 instead of CaCl2 was added to crude homogenate (final concentration 10 mM MgCl2) to precipitate membranes other than BBMV; (b) in the final step, BBMV were washed and equilibrated in a medium of pH=7.5, instead of pH=8.5. The enrichment and specific activities of typical BBM enzymes alkaline phosphatase (APases), γ-glutyamyl transferase (γ-GTT), leucineaminopeptidase (LAP) and maltase with use of these modifications were similar as in BBMV fractions prepared in our previous studies. As a final step in the preparative procedure, the BBMV fraction was washed and resuspended in a medium containing 300 mM mannitol and 5 mM Tris-HEPES adjusted to pH=t.5, referred to as "MTH-medium," unless specified otherwise. The analogous BBMV fractions, using the same procedure, were prepared from renal cortices of mongrel dogs, albino mice and New Zealand albino rabbits.
The BBMV uptake of ^32 Pi, D-[^3 H]-glucose, L-[^3 H]-proline and ^22 Na^+ was measured by means of a rapid filtration technique, as described in J. Clin. Invest., 67, 1347 (1981) and Am. J. Physiol., 246, F133-F139 (1984). Also, unless specified otherwise, the medium for the solute uptake assay consisted of following compounds (in final concentrations): 100 mM mannitol, 100 mM NaCl (or 100 mM KC1) and 5 mM Tris-HEPES (pH=7.5) and eitehr 0.1 mM K2 H^32 PO4, or 0.05 mM D-[^3 H]-glucose, or 0.025 mM L-[^3 H]-proline. IN the ^22 Na^+ uptake studies, the assay medium contained 100 mM ^22 NaCl (^22 NaCl about […] per tube), 100 mM mannitol and 5 mM Tris-HEPES (pH 7.5).
In most experiments, the Na^+ -gradient-dependent ^32 Pi uptake in the concentrative "uphill" phase was measured at 20 seconds period. Since Na^+ -independent Pi uptake in this time period was quantitatively minor component (<5%) of the Na^+ -gradient-dependent Pi uptake, it was not routinely subtracted.

[2] = Hydrolysis of phosphono-compounds (release of Pi) in the BBMV assay; details: 1 mM; hydrolysis to release more than 5% Pi
Description: Compounds studied in the present experiments which inhibited BBM transport of Pi without hydrolysis to release more than 5% Pi are listed in Table 1.

[3] = tested on: diffusional uptake of ^22 Na^+ by BBMV; assay: Diffusional uptake of 22Na+ by renal BBMV; format: biochemical, rat; details: 1 mM
Description: as §1, with “As a final step in the preparative procedure, the BBMV fraction was washed and resuspended in a medium containing 300 mM mannitol and 5 mM Tris-HEPES adjusted to pH=t.5, referred to as "MTH-medium," unless specified otherwise. The analogous BBMV fractions, using the same procedure, were prepared from renal cortices of mongrel dogs, albino mice and New Zealand albino rabbits.” left out
(§2) The BBMV uptake of ^32 Pi, D-[^3 H]-glucose, L-[^3 H]-proline and ^22 Na^+ was measured by means of a rapid filtration technique, as described in J. Clin. Invest., 67, 1347 (1981) and Am. […]

[4] = tested on: D-[^3 H]-glucose uptake by BBMV; assay: Na+-gradient-dependent uptake of D-[3H]-glucose by renal BBMV; format: biochemical, rat; details: initial uptake 15 sec, FIG. 2
Description: as §1, with “As a final step in the preparative procedure, the BBMV fraction was washed and resuspended in a medium containing 300 mM mannitol and 5 mM Tris-HEPES adjusted to pH=t.5, referred to as "MTH-medium," unless specified otherwise. The analogous BBMV fractions, using the same procedure, were prepared from renal cortices of mongrel dogs, albino mice and New Zealand albino rabbits.” left out
as §2

[5] = tested on: L-[^3 H]-proline uptake by BBMV; assay: Na+-gradient-dependent uptake of L-[3H]-proline by renal BBMV; format: biochemical, rat; details: initial uptake 15 sec, FIG. 2
Description: as §1, with “As a final step in the preparative procedure, the BBMV fraction was washed and resuspended in a medium containing 300 mM mannitol and 5 mM Tris-HEPES adjusted to pH=t.5, referred to as "MTH-medium," unless specified otherwise. The analogous BBMV fractions, using the same procedure, were prepared from renal cortices of mongrel dogs, albino mice and New Zealand albino rabbits.” left out
as §2

Compound: NCCP(=O)(O)O [2-aminoethylphosphonic acid, reference compound]
effect on Na+-gradient uptake of Pi by renal BBMV (in words) [1]: lacked the inhibitory effect

inhibition at 1000 µM ([1]; 1 mM, initial uptake at 20 sec, rat kidney cortex BBMV, read-out: Δ% (inhibition as percent decrease from control) of Na+-gradient-dependent 32Pi uptake): -27% | Note: hydrolysis [2]: no
Compound: CC(O)(P(=O)(O)O)P(=O)(O)O [EHDP, disodium ethane-1-hydroxy-1,1-diphosphonate, reference compound]

inhibition at 5000 µM ([1]; 5 mM, initial uptake at 20 sec, rat kidney cortex BBMV, read-out: Δ% (inhibition as percent decrease from control) of Na+-gradient-dependent 32Pi uptake): -21%
Compound: O=P(O)(O)CP(=O)(O)O [MDP, Methylenediphosphonic acid, reference compound]

Compound: O=C(O)P(=O)(O)O [PFA, phosphonoformic acid]
22Na+ uptake 120 min ([3]; equilibrium, control 166 ± 25): 192 ± 30 nmoles/mg protein | 22Na+ uptake 20 sec ([3]; mean ± SEM of 3 experiments, control 42 ± 4): 45 ± 3 nmoles/mg protein | effect on Na+-gradient-dependent uptake of D-[3H]-glucose [4]: no inhibitory effect | effect on Na+-gradient-dependent uptake of L-[3H]-proline [5]: no inhibitory effect

Compound: O=C(O)CCP(=O)(O)O [PPA, phosphonopropionic acid, reference compound]
effect on Na+-gradient uptake of Pi by renal BBMV (in words) [1]: inactive

Compound: O=P(O)(O)CO [hydroxymethylphosphonic acid, reference compound]
effect on Na+-gradient uptake of Pi by renal BBMV (in words) [1]: without effect; also recorded: lacked the inhibitory effect

Compound: O=P(O)(O)c1ccccc1 [phenylphosphonic acid, reference compound]
effect on Na+-gradient uptake of Pi by renal BBMV (in words) [1]: without effect; also recorded: lacked the inhibitory effect

Compound: COC(=O)CP(=O)(OC)OC [trimethylester of PAA, reference compound]
effect on Na+-gradient uptake of Pi by renal BBMV (in words) [1]: without inhibitory effort

Compound: COC(=O)P(=O)(OC)OC [trimethylester of TPFA, reference compound]
effect on Na+-gradient uptake of Pi by renal BBMV (in words) [1]: without inhibitory effort
